The values that follow come from patent publication US20230295200A1 (REGENTS OF THE UNIVERSITY OF MICHIGAN, priority 2022, published 2023).

One assay addresses T1, STAT5A (Homo sapiens, UniProt P42229).
T1 sequence (P42229 1-794): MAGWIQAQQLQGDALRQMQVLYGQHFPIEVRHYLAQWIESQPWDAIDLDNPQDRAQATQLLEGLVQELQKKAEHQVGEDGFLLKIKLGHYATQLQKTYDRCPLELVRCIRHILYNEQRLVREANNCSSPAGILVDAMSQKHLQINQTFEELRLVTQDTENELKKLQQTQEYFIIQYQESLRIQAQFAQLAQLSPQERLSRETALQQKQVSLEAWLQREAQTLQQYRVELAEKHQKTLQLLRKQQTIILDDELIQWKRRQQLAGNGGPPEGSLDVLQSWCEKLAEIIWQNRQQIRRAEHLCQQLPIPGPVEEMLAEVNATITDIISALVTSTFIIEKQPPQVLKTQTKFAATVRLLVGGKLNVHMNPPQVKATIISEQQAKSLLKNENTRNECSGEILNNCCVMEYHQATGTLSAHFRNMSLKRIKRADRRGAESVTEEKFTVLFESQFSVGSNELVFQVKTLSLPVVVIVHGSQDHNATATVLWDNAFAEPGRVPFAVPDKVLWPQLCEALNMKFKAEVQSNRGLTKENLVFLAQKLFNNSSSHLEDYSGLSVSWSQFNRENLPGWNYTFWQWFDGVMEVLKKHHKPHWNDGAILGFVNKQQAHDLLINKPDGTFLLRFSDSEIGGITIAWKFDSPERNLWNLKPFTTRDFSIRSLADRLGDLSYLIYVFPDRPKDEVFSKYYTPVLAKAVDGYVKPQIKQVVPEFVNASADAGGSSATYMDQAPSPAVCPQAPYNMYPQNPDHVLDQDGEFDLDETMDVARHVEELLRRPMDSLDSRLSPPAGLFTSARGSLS
Kind of assay: Fluorescence polarization (FP) binding assay, STAT5A. The settings on record: FP competition, 5 nM fluorescein-labeled tracer, 200 nM protein, PBS pH7.4. The method, boiled down:
(§1)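 Competitive FP read-out with 5 nM fluorescein-labeled tracer and 200 nM STAT5 or STAT6 protein in PBS pH 7.4 containing 0.01% BGG, 0.01% Tween-20 and 2 mM DTT. Plates were shaken 15 min, then equilibrated 1 h at room temperature; inhibition constants came from nonlinear curve fitting.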
(In general: In fluorescence polarisation assays a small probe gives low polarisation when free and higher when bound to something large.)

The target in the next assay is T2, STAT6 protein (Homo sapiens, UniProt P42226).
T2 sequence (P42226 1-847): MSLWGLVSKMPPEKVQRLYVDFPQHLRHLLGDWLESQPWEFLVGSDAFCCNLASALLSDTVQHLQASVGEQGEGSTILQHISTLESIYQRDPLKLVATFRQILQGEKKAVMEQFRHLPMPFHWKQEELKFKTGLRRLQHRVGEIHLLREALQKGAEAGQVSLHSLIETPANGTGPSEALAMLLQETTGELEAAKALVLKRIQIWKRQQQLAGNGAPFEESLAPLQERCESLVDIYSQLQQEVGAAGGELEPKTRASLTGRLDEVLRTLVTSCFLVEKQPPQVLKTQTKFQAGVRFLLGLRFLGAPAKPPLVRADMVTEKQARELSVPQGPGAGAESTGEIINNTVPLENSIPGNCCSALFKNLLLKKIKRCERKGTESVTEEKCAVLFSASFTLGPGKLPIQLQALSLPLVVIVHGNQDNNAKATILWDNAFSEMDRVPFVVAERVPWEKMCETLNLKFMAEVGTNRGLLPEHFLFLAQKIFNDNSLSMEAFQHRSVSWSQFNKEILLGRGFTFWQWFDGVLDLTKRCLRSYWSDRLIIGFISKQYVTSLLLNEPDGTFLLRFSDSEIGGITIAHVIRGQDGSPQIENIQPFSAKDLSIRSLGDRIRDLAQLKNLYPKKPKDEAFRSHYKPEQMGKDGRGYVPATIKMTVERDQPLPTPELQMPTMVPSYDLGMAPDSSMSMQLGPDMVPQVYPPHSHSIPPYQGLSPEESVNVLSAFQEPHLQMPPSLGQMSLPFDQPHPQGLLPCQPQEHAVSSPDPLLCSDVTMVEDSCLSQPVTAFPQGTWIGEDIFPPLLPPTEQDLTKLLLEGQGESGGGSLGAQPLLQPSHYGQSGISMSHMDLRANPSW
Kind of assay: Fluorescence polarization (FP) binding assay, STAT6. The settings on record: FP competition, 5 nM fluorescein-labeled tracer, 200 nM protein, PBS pH7.4; read-out: Binding STAT6. The method, boiled down:
as §1

With `CC(C)(C)[C@H](NC(=O)c1cc2cc(C(F)(F)P(=O)(O)O)ccc2s1)C(=O)N1CCC[C@H]1C(=O)N1CCOC(C2CCCCC2)C1` (stereo partly drawn) [Compound 134, ((2-(((2S)-1-((2S)-2-(2-cyclohexylmorpholine-4-carbonyl)pyrrolidin-1-yl)-3,3-dimethyl-1-oxobutan-2-yl)carbamoyl)benzo[b]thiophen-5-yl)difluoromethyl)phosphonic acid], the Ki was more than 10000 nM on STAT5A and 1000 to 10000 nM on STAT6 protein.

For the molecule `CC(C)(C)[C@H](NC(=O)c1cc2cc(C(F)(F)P(=O)(O)O)ccc2s1)C(=O)N1CCC[C@H]1C(=O)N1CCS(=O)(=O)[C@H](c2ccccc2)C1` [Compound 135, ((2-(((S)-1-((S)-2-((R)-1,1-dioxido-2-phenylthiomorpholine-4-carbonyl)pyrrolidin-1-yl)-3,3-dimethyl-1-oxobutan-2-yl)carbamoyl)benzo[b]thiophen-5-yl)difluoromethyl)phosphonic acid], the Ki on STAT5A lay in the range of 1000 to 10000 nM; at STAT6 protein it was 100 to 1000 nM.

In the case of `CC(C)(C)[C@H](NC(=O)c1cc2cc(C(F)(F)P(=O)(O)O)ccc2s1)C(=O)N1CCC[C@H]1C(=O)N1CCS(=O)(=O)[C@@H](c2ccccc2)C1` [Compound 136, ((2-(((S)-1-((S)-2-((S)-1,1-dioxido-2-phenylthiomorpholine-4-carbonyl)pyrrolidin-1-yl)-3,3-dimethyl-1-oxobutan-2-yl)carbamoyl)benzo[b]thiophen-5-yl)difluoromethyl)phosphonic acid], the Ki on STAT5A is 1000 to 10000 nM; at STAT6 protein, 100 to 1000 nM.

Take `CC(C)(C)[C@H](NC(=O)c1cc2cc(C(F)(F)P(=O)(O)O)ccc2s1)C(=O)N1CCC[C@H]1C(=O)N1CCC(O)C(c2ccccc2)C1` (stereo partly drawn) [Compound 137, (difluoro(2-(((2S)-1-((2S)-2-(4-hydroxy-3-phenylpiperidine-1-carbonyl)pyrrolidin-1-yl)-3,3-dimethyl-1-oxobutan-2-yl)carbamoyl)benzo[b]thiophen-5-yl)methyl)phosphonic acid]: the results for the Ki at STAT5A and at STAT6 protein were more than 10000 nM and 1000 to 10000 nM, respectively.

In the case of `CC(C)(C)[C@H](NC(=O)c1cc2cc(C(F)(F)P(=O)(O)O)ccc2s1)C(=O)N1CCC[C@H]1C(=O)N1CCOC(c2ccccn2)C1` (stereo partly drawn) [Compound 140, ((2-(((2S)-3,3-dimethyl-1-oxo-1-((2S)-2-(2-(pyridin-2-yl)morpholine-4-carbonyl)pyrrolidin-1-yl)butan-2-yl)carbamoyl)benzo[b]thiophen-5-yl)difluoromethyl)phosphonic acid], the values for the Ki at STAT5A and at STAT6 protein were more than 10000 nM and 100 to 1000 nM, respectively.

On to `CC(C)(C)[C@H](NC(=O)c1cc2cc(C(F)(F)P(=O)(O)O)ccc2s1)C(=O)N1Cc2ccccc2C1C(=O)N1CCO[C@H](c2ccccc2)C1` (stereo partly drawn) [Compound 141, ((2-(((2S)-3,3-dimethyl-1-oxo-1-(1-((R)-2-phenylmorpholine-4-carbonyl)isoindolin-2-yl)butan-2-yl)carbamoyl)benzo[b]thiophen-5-yl)difluoromethyl)phosphonic acid], for which the values for the Ki on STAT5A and at STAT6 protein were 1000 to 10000 nM and 100 to 1000 nM, respectively.

With `CC(C)(C)[C@H](NC(=O)c1cc2cc(C(F)(F)P(=O)(O)O)ccc2s1)C(=O)N1Cc2ccccc2C1C(=O)N1CCO[C@@H](c2ccccc2)C1` (stereo partly drawn) [Compound 142, ((2-(((2S)-3,3-dimethyl-1-oxo-1-(1-((S)-2-phenylmorpholine-4-carbonyl)isoindolin-2-yl)butan-2-yl)carbamoyl)benzo[b]thiophen-5-yl)difluoromethyl)phosphonic acid], the Ki is more than 10000 nM on STAT5A and 1000 to 10000 nM on STAT6 protein.

Turning to `CCC(CC)[C@H](NC(=O)c1cc2cc(C(F)(F)P(=O)(O)O)ccc2s1)C(=O)N1CCC[C@H]1C(=O)N1CCO[C@H](c2ccccc2)C1` [Compound 144, ((2-(((S)-3-ethyl-1-oxo-1-((S)-2-((R)-2-phenylmorpholine-4-carbonyl)pyrrolidin-1-yl)pentan-2-yl)carbamoyl)benzo[b]thiophen-5-yl)difluoromethyl)phosphonic acid], the Ki fell in the range of 1000 to 10000 nM at STAT5A and 100 to 1000 nM at STAT6 protein.

For `CC(C)(C)[C@H](NC(=O)c1ccc2cc(C(F)(F)P(=O)(O)O)ccc2c1)C(=O)N1CCC[C@H]1C(=O)N1CCO[C@H](c2ccccc2)C1` [Compound 145, ((6-(((S)-3,3-dimethyl-1-oxo-1-((S)-2-((R)-2-phenylmorpholine-4-carbonyl)pyrrolidin-1-yl)butan-2-yl)carbamoyl)naphthalen-2-yl)difluoromethyl)phosphonic acid], the Ki on STAT5A is more than 10000 nM; at STAT6 protein it was 100 to 1000 nM.

For the molecule `CC[C@H](NC(=O)c1cc2cc(C(F)(F)P(=O)(O)O)ccc2s1)C(=O)N1CCC[C@H]1C(=O)N1CCO[C@H](c2ccccc2)C1` [Compound 146, (difluoro(2-(((S)-1-oxo-1-((S)-2-((R)-2-phenylmorpholine-4-carbonyl)pyrrolidin-1-yl)butan-2-yl)carbamoyl)benzo[b]thiophen-5-yl)methyl)phosphonic acid], the Ki at STAT5A was 1000 to 10000 nM; on STAT6 protein it was 100 to 1000 nM.

Consider `C#CC[C@H](NC(=O)c1cc2cc(C(F)(F)P(=O)(O)O)ccc2s1)C(=O)N1CCC[C@H]1C(=O)N1CCO[C@H](c2ccccc2)C1` [Compound 147, (difluoro(2-(((S)-1-oxo-1-((S)-2-((R)-2-phenylmorpholine-4-carbonyl)pyrrolidin-1-yl)pent-4-yn-2-yl)carbamoyl)benzo[b]thiophen-5-yl)methyl)phosphonic acid], for which the Ki at STAT5A was more than 10000 nM; at STAT6 protein, 100 to 1000 nM.

As for `O=C(N[C@H](C(=O)N1CCC[C@H]1C(=O)N1CCO[C@H](c2ccccc2)C1)C1CC1)c1cc2cc(C(F)(F)P(=O)(O)O)ccc2s1` [Compound 148, ((2-(((S)-1-cyclopropyl-2-oxo-2-((S)-2-((R)-2-phenylmorpholine-4-carbonyl)pyrrolidin-1-yl)ethyl)carbamoyl)benzo[b]thiophen-5-yl)difluoromethyl)phosphonic acid], the Ki lay in the range of 1000 to 10000 nM at STAT5A and 100 to 1000 nM on STAT6 protein.

In the case of `CC(C)(O)[C@H](NC(=O)c1cc2cc(C(F)(F)P(=O)(O)O)ccc2s1)C(=O)N1CCC[C@H]1C(=O)N1CCO[C@H](c2ccccc2)C1` [Compound 149, (difluoro(2-(((S)-3-hydroxy-3-methyl-1-oxo-1-((S)-2-((R)-2-phenylmorpholine-4-carbonyl)pyrrolidin-1-yl)butan-2-yl)carbamoyl)benzo[b]thiophen-5-yl)methyl)phosphonic acid], the Ki at STAT5A was more than 10000 nM; on STAT6 protein it was 100 to 1000 nM.

As to `CCC(CC)[C@H](NC(=O)c1cc2cc(C(F)(F)P(=O)(O)O)ccc2s1)C(=O)N1CCC[C@H]1C(=O)N1CCO[C@@H](c2ccccc2)C1` [Compound 150, ((2-(((S)-3-ethyl-1-oxo-1-((S)-2-((S)-2-phenylmorpholine-4-carbonyl)pyrrolidin-1-yl)pentan-2-yl)carbamoyl)benzo[b]thiophen-5-yl)difluoromethyl)phosphonic acid], the Ki at STAT5A is more than 10000 nM; at STAT6 protein, 1000 to 10000 nM.

As for `CC(C)(C)[C@H](NC(=O)c1ccc2cc(C(F)(F)P(=O)(O)O)ccc2c1)C(=O)N1CCC[C@H]1C(=O)N1CCO[C@@H](c2ccccc2)C1` [Compound 151, ((6-(((S)-3,3-dimethyl-1-oxo-1-((S)-2-((S)-2-phenylmorpholine-4-carbonyl)pyrrolidin-1-yl)butan-2-yl)carbamoyl)naphthalen-2-yl)difluoromethyl)phosphonic acid], the Ki is more than 10000 nM at STAT5A and 1000 to 10000 nM on STAT6 protein.
